# Assay results from patent US8344181B2, “N-2 adamantanyl-2-phenoxy-acetamide derivatives as 11-beta hydroxysteroid dehydrogenase inhibitors” (Janssen Pharmaceutica N.V., priority 2004, dated 2013).
# How the values were obtained:
# 11β-HSD2 = target: T1, 11β-HSD2 (Homo sapiens, UniProt P80365); assay: Cellular assay of 11β-HSD2 activity in HepG2 cells; format: cell-based; details: 4 hour pre-incubation, 10^-5M to 10^-10M, read-out: HSD2 cellular HepG2 Score
# T1 construct: endogenous in cells; host or cells: HepG2 (ATCC HB-8065)
# T1 sequence (P80365 1-405): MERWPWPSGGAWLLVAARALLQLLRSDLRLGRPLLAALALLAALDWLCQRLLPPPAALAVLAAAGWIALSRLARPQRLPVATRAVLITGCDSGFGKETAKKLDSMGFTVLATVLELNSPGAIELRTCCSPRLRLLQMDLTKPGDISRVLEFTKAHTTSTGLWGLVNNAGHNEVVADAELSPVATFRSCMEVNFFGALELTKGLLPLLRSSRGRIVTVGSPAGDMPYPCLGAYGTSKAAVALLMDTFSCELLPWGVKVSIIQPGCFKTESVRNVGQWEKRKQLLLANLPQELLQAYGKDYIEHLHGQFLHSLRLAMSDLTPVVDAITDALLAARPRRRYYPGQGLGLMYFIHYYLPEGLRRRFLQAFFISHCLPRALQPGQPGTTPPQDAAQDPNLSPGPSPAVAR
# Experimental: The effects on 11β-HSD2 activity was studied in HepG2 and LCC-PK1-cells HepG2-cells (ATCC HB-8065) were seeded in 12 well plates at a density of 100,000 cells/ml and grown at 37° C. in a humidified 5% CO2 atmosphere in MEM-Rega-3 medium supplemented with 10% heat inactivated foetal calf serum, 2 mM L-glutamine and sodium bicarbonate). Medium was refreshed twice a week.
# Following a 4 hour pre-incubation with test compound, 0.5 μCi ^3H-cortisol or corticosterone, was added to the cultures. One hour later, the medium was extracted on Extrelut^3-columns with 15 ml diethyl ether and the extract was analysed by HPLC as described above.
# (§1) As for the enzymatic assays, the compounds to be tested were taken from a stock solution and tested at a final concentration ranging from 10^−5M to 10^−10M. From the thus obtained dose response curves, the pIC50 value was calculated and scored as follows; Score 1=pIC50 value<5, Score 2=pIC50 value in the range of 5 to 6, Score 3=pIC50 value>6. (in this table NT stands for Not Tested).
# 11β-HSD1 = target: T2, 11β-HSD1 (Mus musculus, UniProt P50172); assay: Cellular assay of 11β-HSD1 activity in differentiated 3T3-L1 cells; format: cell-based; details: 4 hour pre-incubation, 10^-5M to 10^-10M, read-out: HSD1 cellular 3T3-L1 Score
# T2 construct: endogenous in cells; host or cells: 3T3-L1 (ATCC-CL-173), differentiated into adipocytes
# T2 sequence (P50172 whole entry): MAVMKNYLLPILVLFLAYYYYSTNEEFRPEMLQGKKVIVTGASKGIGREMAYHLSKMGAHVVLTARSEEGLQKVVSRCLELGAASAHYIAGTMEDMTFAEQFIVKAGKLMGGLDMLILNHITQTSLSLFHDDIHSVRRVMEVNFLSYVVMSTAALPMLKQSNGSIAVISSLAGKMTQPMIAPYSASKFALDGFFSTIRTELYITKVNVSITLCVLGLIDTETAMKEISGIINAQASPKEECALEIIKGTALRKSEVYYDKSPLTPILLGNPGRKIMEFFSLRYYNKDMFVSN
# Experimental: The effects on 11β-HSD1 activity was measured in differentiated 3T3-L1 cells and rat hepatocytes.
# Mouse fibroblast 3T3-L1 cells (ATCC-CL-173) were seeded at a density of 16500 cells/ml in 12 well plates and grown for 7 days in DMEM medium (supplemented with 10% heat inactivated foetal calf serum, 2 mM glutamine and 25 mg gentamycin) at 37° C. in a humidified 5% CO2 atmosphere. Medium was refreshed twice a week. Fibroblasts were differentiated into adipocytes at 37° C. in a 5% CO2 humidified atmosphere in growth medium containing 2 μg/ml insulin, 55 μg/ml IBMX and 39.2 μg/ml dexamethasone.
# Primary hepatocytes from male rats were seeded on normal Falcon 12 well plates at a density of 250000 cells/well and incubated for 16 hours at 37° C. in a 5% CO2 humidified atmosphere in DMEM-HAM's F12 medium containing 5% Nu-serum, 100 U/ml penicillin, 100 μg/ml streptomycin, 0.25 μg/ml amphotericin B, 50 μg/ml gentamycin sulfate, 5 μg/ml insulin and 392 ng/ml dexamethasone. Following a 4 hour pre-incubation with test compound, 0.5 μCi ^3H-cortisone or dehydrocorticosterone, was added to the 3T3-L1 cultures. One hour later, the medium was extracted on Extrelut^3-columns with 15 ml diethyl ether and the extract was analysed by HPLC as described above. The effects of JNJ-compounds on rat hepatocyte HSD1 activity was measured after an incubation period of 90 minutes with 0.5 μCi^3H-dehydrocorticosterone. Corticosterone formation was analysed by HPLC.
# as §1
SMILES,IC50 (11β-HSD2),IC50 (11β-HSD1)
Cc1ccc(S(=O)(=O)N[C@@]23CC4C[C@H](C2)[C@H](NC(=O)C(C)(C)Oc2cccc(C(F)(F)F)c2)[C@@H](C4)C3)cc1 [Compound 89],> 10000 nM,< 1000 nM
CC(=O)N[C@@]12CC3C[C@H](C1)[C@H](NC(=O)C(C)(C)Nc1ccc(Br)cc1C)[C@@H](C3)C2 [Compound 74],1000 to 10000 nM,< 1000 nM
CN1CC(C(=O)N[C@@H]2[C@@H]3CC4C[C@H]2C[C@@](O)(C4)C3)Oc2ccccc21 (some centres unmarked) [Compound 6],> 10000 nM,< 1000 nM
O=C(N[C@H]1[C@@H]2CC3C[C@H]1C[C@](O)(C3)C2)c1cc2ccccc2o1 [Compound 23],> 10000 nM,< 1000 nM
COc1ccc(NC(C)(C)C(=O)N[C@H]2[C@@H]3CC4C[C@H]2C[C@](NC(C)=O)(C4)C3)cc1 [Compound 76],> 10000 nM,< 1000 nM
O=C(N[C@H]1[C@@H]2CC3C[C@H]1C[C@](O)(C3)C2)C1COc2ccccc2O1 (some centres unmarked) [Compound 8],1000 to 10000 nM,< 1000 nM
Cc1c(C)c2c(c(C)c1O)CCC(C)(C(=O)N[C@H]1[C@@H]3CC4C[C@H]1C[C@](O)(C4)C3)O2 (some centres unmarked) [Compound 28],< 1000 nM,< 1000 nM
CC(=O)N[C@@]12CC3C[C@H](C1)[C@H](NC(=O)C(C)(C)Nc1ccc(C)cc1)[C@@H](C3)C2 [Compound 37],> 10000 nM,< 1000 nM
CC(C)(Nc1cccc(C(F)(F)F)c1)C(=O)N[C@H]1[C@@H]2CC3C[C@H]1C[C@](F)(C3)C2 [Compound 61],> 10000 nM,< 1000 nM
Cc1cc(C)cc(OC(C)(C)C(=O)NC2C3CC4CC(C3)CC2C4)c1 (centres unmarked) [Compound 2],> 10000 nM,< 1000 nM
CC(=O)N[C@@]12CC3C[C@H](C1)C(NC(=O)C(C)(C)Nc1cccc(C(=O)O)c1)[C@@H](C3)C2 (some centres unmarked) [Compound 97],–,> 10000 nM
O=C(N[C@H]1[C@@H]2CC3C[C@H]1C[C@](O)(C3)C2)C1CCc2ccccc2O1 (some centres unmarked) [Compound 26],< 1000 nM,< 1000 nM
CC(C)(Sc1ccc(Cl)cc1)C(=O)N[C@H]1[C@@H]2CC3C[C@H]1C[C@](O)(C3)C2 [Compound 4],1000 to 10000 nM,< 1000 nM
COc1ccc(NC(C)(C)C(=O)N[C@H]2[C@@H]3CC4C[C@H]2C[C@](O)(C4)C3)cc1 [Compound 58],> 10000 nM,< 1000 nM
CC(C)(Nc1cccc(C(=O)O)c1)C(=O)N[C@H]1[C@@H]2CC3C[C@H]1C[C@](F)(C3)C2 [Compound 82],–,1000 to 10000 nM
O=C(N[C@H]1[C@@H]2CC3C[C@H]1C[C@](O)(C3)C2)[C@H]1CCc2cc(F)ccc2O1 [Compound 21],< 1000 nM,< 1000 nM
CC(C)(Nc1cccc(C(=O)O)c1)C(=O)N[C@H]1[C@@H]2CC3C[C@H]1C[C@](O)(C3)C2 [Compound 86],–,1000 to 10000 nM
COC(=O)c1ccc(NC(C)(C)C(=O)NC2[C@@H]3CC4C[C@H]2C[C@](F)(C4)C3)cc1 (some centres unmarked) [Compound 96],–,1000 to 10000 nM
CC(C)(C(=O)N[C@H]1[C@@H]2CC3C[C@H]1C[C@](O)(C3)C2)[S+]([O-])c1ccc(Cl)cc1 (some centres unmarked) [Compound 5],–,< 1000 nM
COC(=O)c1ccc(NC(C)(C)C(=O)N[C@H]2[C@@H]3CC4C[C@H]2C[C@](O)(C4)C3)cc1 [Compound 79],–,< 1000 nM

# Now from value to compound:
IC50 (11β-HSD2),IC50 (11β-HSD1),SMILES
1000 to 10000 nM,< 1000 nM,Cc1cc(Cl)ccc1OC(C)(C)C(=O)N[C@H]1[C@@H]2CC3C[C@H]1C[C@](NC(=O)CN(C)C)(C3)C2 [Compound 72]
–,< 1000 nM,Cc1ccccc1OC(C)(C)C(=O)N[C@H]1[C@@H]2CC3C[C@H]1C[C@](N)(C3)C2 [Compound 103]
< 1000 nM,< 1000 nM,Cc1cc(Cl)ccc1OC(C)(C)C(=O)N[C@H]1[C@@H]2CC3C[C@H]1C[C@](N1CCCC1=O)(C3)C2 [Compound 39]
> 10000 nM,< 1000 nM,COC(=O)c1cccc(NC(C)(C)C(=O)N[C@H]2[C@@H]3CC4C[C@H]2C[C@](O)(C4)C3)c1 [Compound 75]
> 10000 nM,< 1000 nM,CC(C)(Nc1ccccc1)C(=O)N[C@H]1[C@@H]2CC3C[C@H]1C[C@](F)(C3)C2 [Compound 68]
–,< 1000 nM,CC(C)(Oc1cc(C(F)(F)F)ccc1Cl)C(=O)N[C@H]1[C@@H]2CC3C[C@H]1C[C@](N)(C3)C2 [Compound 101]
–,< 1000 nM,CC(C)(Oc1ccccc1C(F)(F)F)C(=O)N[C@H]1[C@@H]2CC3C[C@H]1C[C@](N)(C3)C2 [Compound 102]
> 10000 nM,< 1000 nM,Cc1cc(Cl)ccc1OC(C)(C)C(=O)N[C@H]1[C@@H]2CC3C[C@H]1C[C@](N(C)C)(C3)C2 [Compound 46]
1000 to 10000 nM,< 1000 nM,CC(C)(Oc1ccccc1)C(=O)N[C@H]1[C@@H]2CC3C[C@H]1C[C@](O)(C3)C2 [Compound 69]
< 1000 nM,< 1000 nM,CCC(=O)N[C@@]12CC3C[C@H](C1)[C@H](NC(=O)C(C)(C)Oc1ccc(Cl)cc1C)[C@@H](C3)C2 [Compound 63]
> 10000 nM,1000 to 10000 nM,Cc1ccc(OC(C)(C)C(=O)NC2C3CC4CC2CC(c2ccccc2)(C4)C3)cc1 (centres unmarked) [Compound 49]
> 10000 nM,< 1000 nM,Cc1ccc(NC(C)(C)C(=O)N[C@H]2[C@@H]3CC4C[C@H]2C[C@](O)(C4)C3)cc1 [Compound 27]
< 1000 nM,< 1000 nM,Cc1cc(Cl)ccc1OC(C)(C)C(=O)N[C@H]1[C@@H]2CC3C[C@H]1C[C@](N1CCC(C)C1=O)(C3)C2 (some centres unmarked) [Compound 91]
> 10000 nM,< 1000 nM,Cc1cccc(NC(C)(C)C(=O)N[C@H]2[C@@H]3CC4C[C@H]2C[C@](O)(C4)C3)c1 [Compound 55]
> 10000 nM,< 1000 nM,Cc1ccc(NC(C)(C)C(=O)N[C@H]2[C@@H]3CC4C[C@H]2C[C@](F)(C4)C3)cc1 [Compound 62]
> 10000 nM,< 1000 nM,COc1cccc(NC(C)(C)C(=O)N[C@H]2[C@@H]3CC4C[C@H]2C[C@](F)(C4)C3)c1 [Compound 56]
1000 to 10000 nM,< 1000 nM,CC(C)(Oc1ccc(Cl)cc1)C(=O)N[C@H]1[C@@H]2CC3C[C@H]1C[C@](NC(=O)CCl)(C3)C2 [Compound 94]
> 10000 nM,< 1000 nM,COc1ccc(NC(C)(C)C(=O)N[C@H]2[C@@H]3CC4C[C@H]2C[C@](F)(C4)C3)cc1 [Compound 59]
1000 to 10000 nM,< 1000 nM,CC(C)(Oc1cccc(C(F)(F)F)c1)C(=O)N[C@H]1[C@@H]2CC3C[C@H]1C[C@](NS(C)(=O)=O)(C3)C2 [Compound 83]
< 1000 nM,< 1000 nM,CC(=O)N[C@@]12CC3C[C@H](C1)[C@H](NC(=O)C(C)(C)Oc1ccc(Cl)cc1C)[C@@H](C3)C2 [Compound 29]
–,< 1000 nM,CC(C)(Oc1cccc(C(F)(F)F)c1Cl)C(=O)N[C@H]1[C@@H]2CC3C[C@H]1C[C@](N)(C3)C2 [Compound 100]
–,< 1000 nM,COc1cc(F)ccc1OC(C)(C)C(=O)N[C@H]1[C@@H]2CC3C[C@H]1C[C@](N)(C3)C2 [Compound 105]
–,1000 to 10000 nM,Cc1cc(Cl)ccc1OC(C)(C)C(=O)N[C@H]1[C@@H]2CC3C[C@H]1C[C@](NC(=O)NC(C)(C)C)(C3)C2 [Compound 71]
–,< 1000 nM,CC(C)(Oc1ccccc1Cl)C(=O)N[C@H]1[C@@H]2CC3C[C@H]1C[C@](N)(C3)C2 [Compound 99]
–,< 1000 nM,COC(=O)c1cccc(NC(C)(C)C(=O)N[C@H]2[C@@H]3CC4C[C@H]2C[C@](F)(C4)C3)c1 [Compound 78]
–,< 1000 nM,CC(C)(Oc1cccc(Br)c1)C(=O)N[C@H]1[C@@H]2CC3C[C@H]1C[C@](NC(=O)OCCCl)(C3)C2 [Compound 98]
